Test results published in the SangsterLogP compilation.

Experiment: method code SF-AS, from PMID: 6637502
Conditions: pH 5.0

Row | Compound | logD
1 | Cc1ccn2c(=O)c3c(nc2c1)CCCC3 | 1.86
2 | O=c1c2c(nc3ccccn13)CCCC2 | 1.63
3 | Cc1ccc2nccc(=O)n2c1 | 0.61
4 | O=c1c2ccccc2nc2n1CCCCC2 | 1.98
5 | Cc1ccn2c(=O)c3c(nc2c1)CCC3 | 1.65
6 | CC1CCc2nc3c(c(=O)n2C1)CCCC3 (configuration not stated) | 1.7
7 | Cc1cnc2n(c1=O)C(C)CCC2 (configuration not stated) | 0.82
8 | Cc1nc2n(c(=O)c1C)CCCC2 | 0.6
9 | Cc1cnc2n(c1=O)CCCC2 | 0.4
10 | O=c1c2c(nc3n1CCC3)CCC2 | 0.22
11 | Cc1cccc2nc3c(c(=O)n12)CCC3 | 1.77

Now from value to compound:

Row | logD | Compound
12 | 1.91 | Cc1cccc2nc3c(c(=O)n12)CCCC3
13 | 2.07 | Cc1ccc2nc3c(c(=O)n2c1)CCCC3
14 | 1.61 | Cc1ccc2nc3c(c(=O)n2c1)CCC3
15 | 2.44 | Cc1cccn2c(=O)c3c(nc12)CCCC3
16 | 1.67 | CC1CCCc2nc3c(c(=O)n21)CCCC3 (configuration not stated)
17 | 0.79 | Cc1cccn2c(=O)ccnc12
18 | 2.18 | O=c1c2c(nc3n1CCCCC3)CCCCC2
19 | 1.76 | CC1CCCn2c1nc1c(c2=O)CCCC1 (configuration not stated)
20 | 0.56 | Cc1ccn2c(=O)ccnc2c1
21 | 1.67 | CC1CCn2c(nc3c(c2=O)CCCC3)C1 (configuration not stated)
22 | 1.25 | O=c1c2c(nc3n1CCCCC3)CCC2
